Data: ChEMBL document CHEMBL1126158, “Conformational analyses and molecular-shape comparisons of a series of indanone-benzylpiperidine inhibitors of acetylcholinesterase” (J Med Chem, 1992)

Target: Acetylcholinesterase (Homo sapiens, UniProt P22303)
Test: Inhibition of acetylcholinesterase activity

Acetylcholinesterase, sequence (P22303 whole entry): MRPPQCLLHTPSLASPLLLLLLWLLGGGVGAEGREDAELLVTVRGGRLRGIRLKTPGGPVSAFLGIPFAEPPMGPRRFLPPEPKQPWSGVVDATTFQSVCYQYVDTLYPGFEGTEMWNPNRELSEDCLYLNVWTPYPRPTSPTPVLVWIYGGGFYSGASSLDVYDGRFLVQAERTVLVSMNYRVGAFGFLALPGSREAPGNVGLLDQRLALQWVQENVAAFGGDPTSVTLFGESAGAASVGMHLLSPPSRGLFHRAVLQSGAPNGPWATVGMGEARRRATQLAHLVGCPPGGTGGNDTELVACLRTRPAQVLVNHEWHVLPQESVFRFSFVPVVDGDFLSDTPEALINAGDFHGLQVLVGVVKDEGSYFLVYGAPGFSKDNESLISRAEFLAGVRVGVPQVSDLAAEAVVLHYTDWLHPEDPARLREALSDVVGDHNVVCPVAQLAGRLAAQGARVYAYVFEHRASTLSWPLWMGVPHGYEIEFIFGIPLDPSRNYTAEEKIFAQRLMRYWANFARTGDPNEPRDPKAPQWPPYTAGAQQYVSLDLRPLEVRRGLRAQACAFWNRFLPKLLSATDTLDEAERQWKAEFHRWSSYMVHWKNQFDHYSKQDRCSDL

SMILES	IC50
CN1CCC(C[C@@H]2Cc3ccccc3C2=O)CC1	5.3 nM
CC1CCN(Cc2cccc3ccccc23)CC1	220 nM
CC1CCN(Cc2ccc3ccccc3c2)CC1	2900 nM
CN1CCC(/C=C/C=C2\Cc3ccccc3C2=O)CC1	3 nM
CN1CCC(CC/C=C2\Cc3ccccc3C2=O)CC1	0.82 nM
CN1CCN(CC2Cc3ccccc3C2=O)CC1 (centres undefined)	94 nM
CC1CCN(CC2Cc3ccccc3C2=O)CC1 (centres undefined)	480 nM
CN1CCC(/C=C2\Cc3ccccc3C2=O)CC1	8.4 nM
CN1CCC(=C2Cc3ccccc3C2=O)CC1	1200 nM
Cc1ccccc1CN1CCC(C)CC1	10 nM
CC1CCN(Cc2ccccc2)CC1	5.3 nM
CN1CCC(CCC2C(=O)Nc3ccccc3C2=O)CC1 (centres undefined)	4.2 nM
CN1CCC(CCCC2Cc3ccccc3C2=O)CC1 (centres undefined)	1.5 nM
CC1CCN(CCc2ccccc2)CC1	180 nM
CC1CCN(CC2CCCCC2)CC1	8.9 nM
CN1CCC(CCN2C(=O)c3ccccc3C2=O)CC1	0.9 nM
CN1CCC(C[C@H]2Cc3ccccc3C2=O)CC1	7.7 nM
CC1CCN(Cc2ccccc2[N+](=O)[O-])CC1	160 nM
CN1CCC(C2Cc3ccccc3C2=O)CC1 (centres undefined)	3300 nM
